Measured values taken from the supplement of paper PMC11061612.

Experiments:
Test in all cases: Bliss excess, mean over the matrix (fraction); higher = more synergy
[1] = tested on: CAL-62 (Thyroid Gland Carcinoma)
How it was run: (§1)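 Bliss excess equals the observed combination effect minus the expected value EA + EB − EA·EB, where EA and EB are the effects of each agent alone. Combination Emax is the second-highest inhibition within the matrix. Inhibition was scaled from CellTiter-Glo 2.0 luminescence, with 0 set by vehicle wells and 1 by blank wells, after 72 hours of two-drug dosing of cells plated in 1536-well plates.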

[2] = tested on: GB-1 (Glioblastoma)
How it was run: as §1

[3] = tested on: HCT-15 (Colorectal Carcinoma)
How it was run: as §1

[4] = tested on: HEC-1 (Endometrial Carcinoma)
How it was run: as §1

[5] = tested on: HSC-39 (Gastric Carcinoma)
How it was run: as §1

[6] = tested on: IST-MES1 (Mesothelioma)
How it was run: as §1

[7] = tested on: KE-37 (T-Lymphoblastic Leukemia)
How it was run: as §1

[8] = tested on: L-1236 (Hodgkin's Lymphoma)
How it was run: as §1

[9] = tested on: NCI-H2342 (Lung Adenocarcinoma)
How it was run: as §1

[10] = tested on: NCI-H446 (Small Cell Lung Carcinoma)
How it was run: as §1

[11] = tested on: OAW-42 (Ovarian Carcinoma)
How it was run: as §1

[12] = tested on: OVMIU (Ovarian Carcinoma)
How it was run: as §1

[13] = tested on: PSN1 (Pancreatic Carcinoma)
How it was run: as §1

[14] = tested on: REH (B-Lymphoblastic Leukemia)
How it was run: as §1

[15] = tested on: RERF-GC-1B (Gastric Carcinoma)
How it was run: as §1

[16] = tested on: RERF-LC-Sq1 (Squamous Cell Lung Carcinoma)
How it was run: as §1

[17] = tested on: SF539 (Glioblastoma)
How it was run: as §1

[18] = tested on: SHP-77 (Small Cell Lung Carcinoma)
How it was run: as §1

[19] = tested on: SK-PN-DW (Other Solid Carcinomas)
How it was run: as §1

[20] = tested on: WM278 (Melanoma)
How it was run: as §1

| Compound | Bliss excess [1] | Bliss excess [2] | Bliss excess [3] | Bliss excess [4] | Bliss excess [5] | Bliss excess [6] | Bliss excess [7] | Bliss excess [8] | Bliss excess [9] | Bliss excess [10] | Bliss excess [11] | Bliss excess [12] | Bliss excess [13] | Bliss excess [14] | Bliss excess [15] | Bliss excess [16] | Bliss excess [17] | Bliss excess [18] | Bliss excess [19] | Bliss excess [20] |
| --- | --- | --- | --- | --- | --- | --- | --- | --- | --- | --- | --- | --- | --- | --- | --- | --- | --- | --- | --- | --- |
| NC1(C(=O)N[C@@H](CCO)c2ccc(Cl)cc2)CCN(c2ncnc3[nH]ccc23)CC1 [Capivasertib] + C[C@@H]1COCCN1C2=NC(=NC(=C2)C3(CC3)[S@](=N)(=O)C)C4=C5C=CNC5=NC=C4 [AZD6738] (first compound max 10 µM, 7x7, partner max 10 µM) | -0.0306 | -0.054 | -0.0104 | -0.0205 | -0.0181 | 0.0194 | -0.0061 | -0.0645 | -0.0709 | -0.0166 | 0.0034 | -0.0471 | -0.0084 | -0.0859 | -0.0076 | -0.0719 | -0.0125 | -0.0078 | -0.0412 | -0.0637 |
| NC1(C(=O)N[C@@H](CCO)c2ccc(Cl)cc2)CCN(c2ncnc3[nH]ccc23)CC1 [Capivasertib] + Cn1cnc2c(F)c(Nc3ccc(Br)cc3Cl)c(C(=O)NOCCO)cc21 [Selumetinib] (first compound max 10 µM, 7x7, partner max 10 µM) | 0.0695 | 0.0042 | 0.0387 | 0.0234 | 0.2 | 0.0018 | 0.0803 | 0.0433 | 0.0891 | 0.0534 | 0.0028 | -0.0255 | -0.0255 | -0.005 | 0.0077 | 0.0005 | -0.0225 | -0.0045 | 0.032 | 0.0221 |
| Cc1nc(Nc2ncc(C(=O)Nc3c(C)cccc3Cl)s2)cc(N2CCN(CCO)CC2)n1 [Dasatinib] + CC(=O)Nc1cccc(-n2c(=O)n(C3CC3)c(=O)c3c(Nc4ccc(I)cc4F)n(C)c(=O)c(C)c32)c1 [Trametinib] (first compound max 2 µM, 7x7, partner max 1 µM) | 0.163 | 0.121 | 0.0847 | 0.0095 | -0.0706 | 0.0328 | -0.0125 | 0.008 | -0.0578 | 0.112 | 0.0199 | -0.0298 | 0.0121 | -0.0421 | 0.0784 | -0.179 | -0.0177 | -0.0238 | -0.0292 | 0.162 |
